Usually IC50 stands for the point on the concentration scale where inhibition reaches its midpoint.

The values that follow come from US11021481B2, “Substituted isoindolin-1-ones and 2,3-dihydro-1h-pyrrolo[3,4-c]pyridin-1-ones as HPK1 antagonists” (Nimbus Saturn, Inc., priority 2019, dated 2021).

Where a name gives a salt, the structure may show the parent alone.

The test deals with HPK1 (Homo sapiens (Human), UniProt Q92918). The experiment in a line: HPK1 biochemical enzyme assay (microfluidic mobility shift assay). The note with it: 1.5 nM HPK1, ATP 1 mM final, 30 min preincubation, 60 min at RT, Caliper EZ Reader; read-out: HPK1 1000UMATP caliper IC50. In a few lines: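 Ten-point compound titrations (top 3 μM final) preincubated 30 min with HPK1 and substrate, then reaction started with 1 mM ATP and 1 μM substrate, 5 mM MgCl2. After 60 min at RT, reaction terminated and product measured by microfluidic mobility shift.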
HPK1, sequence (Q92918 whole entry): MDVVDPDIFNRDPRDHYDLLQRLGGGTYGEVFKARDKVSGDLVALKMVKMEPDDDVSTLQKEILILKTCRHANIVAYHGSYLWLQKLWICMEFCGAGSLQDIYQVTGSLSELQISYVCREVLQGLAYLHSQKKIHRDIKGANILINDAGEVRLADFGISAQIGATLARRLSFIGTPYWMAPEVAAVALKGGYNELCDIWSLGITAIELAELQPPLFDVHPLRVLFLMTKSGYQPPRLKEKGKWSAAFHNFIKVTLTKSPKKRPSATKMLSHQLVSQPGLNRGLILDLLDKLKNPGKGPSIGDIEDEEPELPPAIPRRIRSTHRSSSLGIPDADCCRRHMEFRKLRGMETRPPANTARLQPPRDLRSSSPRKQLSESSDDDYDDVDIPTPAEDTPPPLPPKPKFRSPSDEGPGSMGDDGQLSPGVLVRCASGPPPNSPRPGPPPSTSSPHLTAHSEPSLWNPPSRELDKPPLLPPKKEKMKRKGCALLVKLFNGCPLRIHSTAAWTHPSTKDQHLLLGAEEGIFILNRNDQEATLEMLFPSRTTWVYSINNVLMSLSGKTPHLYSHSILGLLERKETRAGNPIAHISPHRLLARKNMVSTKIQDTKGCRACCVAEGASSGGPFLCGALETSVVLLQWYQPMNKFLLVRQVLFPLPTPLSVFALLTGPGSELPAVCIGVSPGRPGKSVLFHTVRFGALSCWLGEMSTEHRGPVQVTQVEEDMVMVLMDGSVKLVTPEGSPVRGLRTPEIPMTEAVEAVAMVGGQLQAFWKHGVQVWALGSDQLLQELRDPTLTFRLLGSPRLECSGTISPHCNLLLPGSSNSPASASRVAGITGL
For the molecule `CC(C)(O)[C@H]1CN(c2ccc(Nc3cnc(-c4cnc5c(F)cccn45)c4c3C(=O)NC4)nc2)CCO1` [I-458, 4-(8-fluoroimidazo [1,2-a]pyridin-3-yl)-7-[[5-[(2R)-2-(1-hydroxy-1-methyl-ethyl)morpholin-4-yl]-2-pyridyl]amino]-2,3-dihydropyrrolo [3,4-c]pyridin-l-one], the IC50 is under 100 nM.

Consider `COC1CN(Cc2nc(Nc3ccc(-c4cnc5cc(F)ccn45)c4c3C(=O)NC4)ccc2[C@H]2CCOC2)C1` [I-548, (R)-4-(7-fluoroimidazo [1,2-a]pyridin-3-yl)-7-((6-((3-methoxyazet-idin-1-yl)methyl)-5-(tetrahydrofuran-3-yl)pyridin-2-yl)amiiio)isoin-dolin-1-one], for which the IC50 was under 100 nM.

As to `CN1CCN(c2ccc(Nc3ccc(-c4ccnc5c4cnn5C)c4c3C(=O)NC4)nc2)CC1` [I-61, 7-[[5-(4-methylpiperazn-1-yl)-2-pyridyl]amino]-4-(1-methylpyrazolo [3,4-b]pyridin-4-yl)isoindolin-1-one], the IC50 was in the range of 100 to 1000 nM.

Turning to `Cn1ccc2c(-c3ccc(Nc4ccc(N5CCC[C@H](O)C5)cn4)c4c3CNC4=O)ccnc21` [I-116, 7-[[5-[(3S)-3-hydroxy-1-piperidyl]-2-pyridyl]amino]-4-(1-methylpyrrolo [2,3-b]pyridin-4-yl)isoindolin-1-one], the concentration for half-maximal inhibition (IC50) was under 100 nM.

As for `CN(C)Cc1nc(Nc2cnc(-c3ccnc4c3ccn4C)c3c2C(=O)NC3)ccc1C1CCOCC1` [I-845, 7-[[6-[(dimethylamino)-methyl]-5-tetrahydropyran-4-yl-2-pyridyl]amino]-4-[l-methylpyrrolo [2,3-b]pyridin-4-yl)-2,3-dihydropyrrolo [3,4-c]pyridin-1-one Formic acid salt], the IC50 is under 100 nM.

Regarding `CO[C@@H]1CCN(Cc2nc(Nc3ccc(-c4cnc5cc(F)ccn45)c4c3C(=O)NC4)ccc2[C@@H]2CCOC2)C1` [I-781, 4-(7-fluoroimidazo [1,2-a]pyridin-3-yl)-7-((6-(((R)-3-methoxypyrrol-idin-1-yl)methyl)-5-((S)-tetrahydrofuran-3-yl)pyridin-2-yl)amino)isoin-dolin-1-one], the concentration for half-maximal inhibition (IC50) was under 100 nM.

For the molecule `Cn1ccc2c(-c3ccc(Nc4ccc(N5CC[C@@H](O)C5)cn4)c4c3CNC4=O)ccnc21` [I-278, (R)-7-((5-(3-hydroxy-pyrrolidin-1-yl)pyridin-2-yl)amino)-4-(1-methyl-1H-pyrrolo[2,3-b]pyridin-4-yl)isoindolin-1-one], the half-inhibitory concentration (IC50) is under 100 nM.

For `CN(C)Cc1nc(Nc2ccc(-c3cnc4cc(F)ccn34)c3c2C(=O)NC3)ccc1N1CC[C@H](O)C1` [I-555], the IC50 is under 100 nM.

Regarding `Cc1ccn2c(-c3ccc(Nc4ccc(N5CCO[C@H](CO)C5)cn4)c4c3CNC4=O)cnc2n1` [I-452, 7-[[5-[(2S)-2-(hydroxymeth-yl)morpholin-4-yl]-2-pyridyl]amino]-4-(7-methylimidazo [1,2-a]pyrimidin-3-yl)isoindolin-1-one], the IC50 is under 100 nM.

As for `CN(C)Cc1nc(Nc2cnc(-c3ccnc4c3ccn4C)c3c2C(=O)NC3)ccc1N1CCOC2(CC2)C1` [I-839, 7-((6-((dimethylamino)-methyl)-5-(4-oxa-7-azaspiro[2.5]octan-7-yl)pyridin-2-yl)amino)-4-(1-methyl-1H-pyrrolo[2,3-b]pyridin-4-yl)-2,3-dihydro-1H-pyrrolo[3,4-c]pyridin-1-one], the IC50 was under 100 nM.

Regarding `CN1CCN(c2ccc(Nc3ccc(-c4ccnc5ocnc45)c4c3C(=O)NC4)nc2)CC1` [I-270, 7-((5-(4-methylpiperazin-1-yl)pyridin-2-yl)amino)-4-(oxazolo[5,4-b]pyridin-7-yl)isoindolin-1-one], the concentration for half-maximal inhibition (IC50) was in the range of 100 to 1000 nM.

Regarding `Cc1ccn2c(-c3ccc(Nc4ccc(N5CCC[C@H](O)C5)cn4)c4c3CNC4=O)cnc2c1` [I-170, 7-[[5-[(3S)-3-hydroxy-1-piperidyl]-2-pyridyl]amino]-4-(7-methylimidazo [1,2-a]pyridin-3-yl)isoindolin-1-one], the IC50 was under 100 nM.

Regarding `C[C@@H](O)[C@H]1CCCN(c2ccc(Nc3ccc(-c4cnc5cc(F)ccn45)c4c3C(=O)NC4)nc2)C1` (stereo in doubt) [I-364, 4-(7-fluoroimidazo [1,2-a]pyridin-3-yl)-7-((5-((R)-3-((S)-1-hydroxyethyl)piperidin-1-yl)pyridin-2-yl)amino)isoin-dolin-1-one], the half-maximal inhibitory concentration (IC50) is under 100 nM.

In the case of `Cc1cccn2c(-c3ccc(Nc4ccc(N5CCN(C)CC5)cn4)c4c3CNC4=O)cnc12` [I-52, 4-(8-methylimidazo [1,2-a]pyridin-3-yl-)-7-[[5-(4-methylpiperazin-1-yl)-2-pyridyl]amino] isoindolin-1-1-one], the concentration for half-maximal inhibition (IC50) is under 100 nM.

`CN1CCC(O)(c2cccc(Nc3cnc(-c4ccnc5c4ccn5C)c4c3C(=O)NC4)n2)CC1` [I-407, 7-((6-(4-hydroxy-1-methylpiperidin-4-yl)pyridin-2-yl)amino)-4-(1-methyl-1H-pyrrolo[2,3-b]pyridin-4-yl)-2,3-dihydro-1H-pyrrolo[3,4-c]pyridin-1-one]: the half-maximal inhibitory concentration (IC50) is under 100 nM.

Take `O=C1NCc2c(-c3cnc4cc(C5CC5)ccn34)ccc(Nc3ccc(N4CCC(O)CC4)cn3)c21` [I-181, 4-(7-cyclopropyl-imidazo[1,2-a]pyridin-3-yl)-7-[[5-(4-hydroxy-1-piperidyl)-2-pyridyl]amino] isoindolin-1-one]: the 50% inhibitory concentration (IC50) is under 100 nM.

Consider `CN(C)Cc1nc(Nc2ccc(-c3cnc4cc(C(F)F)ccn34)c3c2C(=O)NC3)ccc1C1CCOC1` (stereo in doubt) [I-752, (S)-4-(7-(difluoromethyl)-imidazo[1,2-a]pyridin-3-yl)-7-((6-((dimethylamino)-methyl)-5-(tetrahydrofuran-3-yl)pyridin-2-yl)amino)isoin-dolin-1-one], for which the IC50 was under 100 nM.

As to `CN(C)Cc1nc(Nc2ccc(-c3cnc4cnccn34)c3c2C(=O)NC3)ccc1C1CCOCC1` [I-850, 7-[[6-[(dimethylami-no)methyl]-5-tetrahydropyran-4-yl-2-pyridyl]amino]-4-imidazo[1,2-a]pyrazin-3-yl-isoindolin-1-one], the IC50 was under 100 nM.

With `CN(C)Cc1cc(C2CCCO2)cc(Nc2ccc(-c3cnc4cc(F)ccn34)c3c2C(=O)NC3)n1` (centres unmarked) [I-852, 7-((6-((dimethylamino)-methyl)-4-(tetrahydrofuran-2-yl)pyridin-2-yl)amino)-4-(7-fluoroimidazo [1,2-a]pyridin-3-yl)isoindolin-1-one Formate salt], the IC50 was under 100 nM.

For the molecule `Cn1ccc2c(-c3ncc(Nc4cccc(N5CC[C@H]6CNC[C@H]65)n4)c4c3CNC4=O)ccnc21` [I-440, 7-((6-((3aS,6aS)-hexahydropy-rrolo[3,4-b]pyrrol-(2H)-yl)pyridin-2-yl)amino)-4-(1-methyl-1H-pyrrolo[2,3-b]pyridin-4-yl)-2,3-dihydro-1H-pyrrolo[3,4-c]pyridin-1-one], the IC50 is under 100 nM.

As to `O=C1NCc2c(-c3cnc4cc(F)ccn34)ccc(Nc3ccc([C@@H]4CCOC4)c(CN4CC[C@@H](O)C4)n3)c21` [I-784, 4-(7-fluoroimidazo [1,2-a]pyridin-3-yl)-7-((6-(((R)-3-hydroxypyrroli-din-1-yl)methyl)-5-((S)-tetrahydrofuran-3-yl)pyridin-2-yl)amino)isoin-dolin-1-one], the half-inhibitory concentration (IC50) is under 100 nM.

In the case of `COc1cc(Nc2cnc(-c3ccnc4c3ccn4C)c3c2C(=O)NC3)nc(N2CC[C@@H]3CNC[C@@H]32)c1` [I-682, 7-((6-((3aR,6aR)-hexahydro-pyrrolo[3,4-b]pyrrol-l(2H)-yl)-4-methoxypyridin-2-yl)amino)-4-(1-methyl-1H-pyrrolo[2,3-b]pyridin-4-yl)-2,3-dihydro-1H-pyrrolo[3,4-c]pyridin-1-one], the concentration for half-maximal inhibition (IC50) lay in the range of 100 to 1000 nM.

For the molecule `O=C1NCc2c(-c3cnc4cnccn34)ccc(Nc3ccc(N4CC5(COC5)C4)cn3)c21` [I-312, 7-((5-(2-oxa-6-azaspiro[3,3]heptan-6-yl)pyridin-2-yl)amino)-4-(imidazo[1,2-a]pyrazin-3-yl)isoindolin-1-one], the IC50 is under 100 nM.

As to `CN1CCN(c2ccc(Nc3cnc(-c4cnn5c4CCC5)c4c3C(=O)NC4)nc2)CC1` [I-254, 4-(5,6-dihydro-4H-pyrrolo[1,2-b]pyrazol-3-yl)-7-((5-(4-methylpiperazin-1-yl)pyridin-2-yl)amino)-2,3-dihydro-1H-pyrrolo[3,4-c]pyridin-1-one], the IC50 was in the range of 100 to 1000 nM.

Consider `CN(C)Cc1nc(Nc2ccc(-c3cnc4cc(F)ccn34)c3c2C(=O)NC3)ccc1N1CCOC2(CC2)C1` [I-530, 7-[[6-[(dimethylamino)-methyl]-5-(4-oxa-7-azaspiro[2.5]octan-7-yl)-2-pyridyl]amino]-4-(7-fluoroimidazo [1,2-a]pyridin-3-yl)isoindolin-1-one Formic acid salt], for which the IC50 was under 100 nM.

On to `Cc1ccn2c(-c3ncc(Nc4ccc(N5CCO[C@H](C(C)(C)O)C5)cn4)c4c3CNC4=O)cnc2c1F` [I-473, 4-(8-fluoro-7-methyl-imidazo[1,2-a]pyridin-3-yl)-7-[[5-[(2S)-2-(1-hydroxy-1-methyl-ethyl)morpholin-4-yl]-2-pyridyl]amino]-2,3-dihydropyrrolo [3,4-c]pyridin-1-one], for which the IC50 is under 100 nM.

Regarding `CNC1CN(c2cccc(Nc3cnc(-c4ccnc5c4ccn5C)c4c3C(=O)NC4)n2)C1` [I-449, 7-[[6-[3-(methylamino)azetidin-1-yl]-2-pyridyl]amino]-4-(1-methylpyrrolo [2,3-b]pyridin-4-yl)-2,3-dihydropyrrolo [3,4-c]pyridin-1-one Formic acid salt], the IC50 was under 100 nM.

Consider `Cn1ccc2c(-c3ccc(Nc4ccc(C5(C)CCNCC5)cn4)c4c3CNC4=O)ccnc21` [I-272, 4-(1-methyl-1H-pyrrolo[2,3-b]pyridin-4-yl)-7-((5-(4-methylpiperidin-4-yl)pyridin-2-yl)amino)isoin-dolin-1-one], for which the IC50 was under 100 nM.

Regarding `CC1(C)CNCCN1Cc1ccc(Nc2ccc(-c3cnc4c(F)c(C(F)F)ccn34)c3c2C(=O)NC3)nc1` [I-655, 4-(7-(difluoromethvl)-8-fluoroimidazo [1,2-a]pyridin-3-yl)-7-((5-((2,2-dimethylpiperazin-1-yl)methyl)pyridin-2-yl)amino)isoin-dolin-1-one], the half-maximal inhibitory concentration (IC50) was under 100 nM.
